From US12077503B2, “Substituted cyclic amides and their use as herbicides” (FMC CORPORATION, priority 2015, dated 2024)

What was measured:
Assay type in all cases: in vivo
[1] = tested on: Kochia (Kochia scoparia); assay: Test A preemergence; settings: Bassia scoparia, pre-emergence, 240 h, 0 to 100 scale where 0 is no effect and 100 is complete control, read-out: Kochia plant response rating; for pest or weed control at 31 g/ha: 31 g ai/ha, Preemergence; for pest or weed control at 125 g/ha: 125 g ai/ha, preemergence, approx. 10 d
Method in brief: (§1)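 Preemergence directed soil spray on seeded pots, or postemergence application to plants 2–10 cm, one- to two-leaf. Solvent mixture non-phytotoxic, with surfactant. Scored ~10 d later, visually, 0–100 vs untreated.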

[2] = tested on: barnyardgrass (Echinochloa crus-galli); assay: Test A preemergence; settings: Echinochloa crus-galli, pre-emergence, 240 h, 0 to 100 scale where 0 is no effect and 100 is complete control, read-out: Barnyardgrass plant response rating; for pest or weed control at 31 g/ha: 31 g ai/ha, Preemergence; for pest or weed control at 125 g/ha: 125 g ai/ha, preemergence, approx. 10 d
Method in brief: as §1

[3] = tested on: giant foxtail (Setaria faberii); assay: Test A preemergence; settings: Setaria faberi, pre-emergence, 240 h, 0 to 100 scale where 0 is no effect and 100 is complete control, read-out: Foxtail, Giant plant response rating; for pest or weed control at 31 g/ha: 31 g ai/ha, Preemergence; for pest or weed control at 125 g/ha: 125 g ai/ha, preemergence, approx. 10 d
Method in brief: as §1

[4] = tested on: pigweed (Amaranthus retroflexus); assay: Test A preemergence; settings: Amaranthus retroflexus, pre-emergence, 240 h, 0 to 100 scale where 0 is no effect and 100 is complete control, read-out: Pigweed plant response rating; for pest or weed control at 31 g/ha: 31 g ai/ha, Preemergence; for pest or weed control at 125 g/ha: 125 g ai/ha, preemergence, approx. 10 d
[5] = tested on: ragweed (common ragweed, Ambrosia elatior); assay: Test A preemergence; settings: Ambrosia artemisiifolia, pre-emergence, 240 h, 0 to 100 scale where 0 is no effect and 100 is complete control, read-out: Ragweed plant response rating; for pest or weed control at 31 g/ha: 31 g ai/ha, Preemergence; for pest or weed control at 125 g/ha: 125 g ai/ha, preemergence, approx. 10 d
Method in brief: as §1

[6] = tested on: ryegrass, Italian (Italian ryegrass, Lolium multiflorum); assay: Test A preemergence; settings: Lolium multiflorum, pre-emergence, 240 h, 0 to 100 scale where 0 is no effect and 100 is complete control, read-out: Ryegrass, Italian plant response rating; for pest or weed control at 31 g/ha: 31 g ai/ha, Preemergence; for pest or weed control at 125 g/ha: 125 g ai/ha, preemergence, approx. 10 d
Method in brief: as §1

[7] = tested on: Galium (catchweed bedstraw, Galium aparine); assay: Test A postemergence; settings: Galium, post-emergence, 240 h; for pest or weed control at 125 g/ha: 125 g ai/ha, postemergence, visual injury vs untreated controls after approx. 10 d, 0 = no effect, 100 = complete control, read-out: Galium plant response rating (0 to 100 scale); for pest or weed control at 31 g/ha: Postemergence, 31 g ai/ha, visual injury after approx. 10 d, 0 to 100 scale, 0 no effect, 100 complete control, read-out: Plant response rating, Galium
Method in brief: as §1

[8] = tested on: Kochia (Kochia scoparia); assay: Test A postemergence; settings: Bassia scoparia, post-emergence, 240 h; for pest or weed control at 125 g/ha: 125 g ai/ha, postemergence, visual injury vs untreated controls after approx. 10 d, 0 = no effect, 100 = complete control, read-out: Kochia plant response rating (0 to 100 scale); for pest or weed control at 31 g/ha: Postemergence, 31 g ai/ha, visual injury after approx. 10 d, 0 to 100 scale, 0 no effect, 100 complete control, read-out: Plant response rating, Kochia
Method in brief: as §1

[9] = tested on: barnyardgrass (Echinochloa crus-galli); assay: Test A postemergence; settings: Echinochloa crus-galli, post-emergence, 240 h; for pest or weed control at 125 g/ha: 125 g ai/ha, postemergence, visual injury vs untreated controls after approx. 10 d, 0 = no effect, 100 = complete control, read-out: Barnyardgrass plant response rating (0 to 100 scale); for pest or weed control at 31 g/ha: Postemergence, 31 g ai/ha, visual injury after approx. 10 d, 0 to 100 scale, 0 no effect, 100 complete control, read-out: Plant response rating, Barnyardgrass
Method in brief: as §1

[10] = tested on: blackgrass (Alopecurus myosuroides); assay: Test A postemergence; settings: Alopecurus myosuroides, post-emergence, 240 h; for pest or weed control at 125 g/ha: 125 g ai/ha, postemergence, visual injury vs untreated controls after approx. 10 d, 0 = no effect, 100 = complete control, read-out: Blackgrass plant response rating (0 to 100 scale); for pest or weed control at 31 g/ha: Postemergence, 31 g ai/ha, visual injury after approx. 10 d, 0 to 100 scale, 0 no effect, 100 complete control, read-out: Plant response rating, Blackgrass
Method in brief: as §1

[11] = tested on: corn (Zea mays); assay: Test A postemergence; settings: Zea mays, post-emergence, 240 h; for plant injury at 125 g/ha: 125 g ai/ha, postemergence, visual injury vs untreated controls after approx. 10 d, 0 = no effect, 100 = complete control, read-out: Corn plant response rating (0 to 100 scale); for Corn plant response rating (crop injury, 0 = no effect, 100 = complete kill) at 31 g/ha: Postemergence, 31 g ai/ha, visual injury after approx. 10 d, 0 to 100 scale, 100 complete control
Method in brief: as §1

[12] = tested on: giant foxtail (Setaria faberii); assay: Test A postemergence; settings: Setaria faberi, post-emergence, 240 h; for pest or weed control at 125 g/ha: 125 g ai/ha, postemergence, visual injury vs untreated controls after approx. 10 d, 0 = no effect, 100 = complete control, read-out: Foxtail, Giant plant response rating (0 to 100 scale); for pest or weed control at 31 g/ha: Postemergence, 31 g ai/ha, visual injury after approx. 10 d, 0 to 100 scale, 0 no effect, 100 complete control, read-out: Plant response rating, Foxtail, Giant
Method in brief: as §1

[13] = tested on: pigweed (Amaranthus retroflexus); assay: Test A postemergence; settings: Amaranthus retroflexus, post-emergence, 240 h; for pest or weed control at 125 g/ha: 125 g ai/ha, postemergence, visual injury vs untreated controls after approx. 10 d, 0 = no effect, 100 = complete control, read-out: Pigweed plant response rating (0 to 100 scale)
Method in brief: as §1

[14] = tested on: ragweed (common ragweed, Ambrosia elatior); assay: Test A postemergence; settings: Ambrosia artemisiifolia, post-emergence, 240 h; for pest or weed control at 125 g/ha: 125 g ai/ha, postemergence, visual injury vs untreated controls after approx. 10 d, 0 = no effect, 100 = complete control, read-out: Ragweed plant response rating (0 to 100 scale)
Method in brief: as §1

[15] = tested on: ryegrass, Italian (Italian ryegrass, Lolium multiflorum); assay: Test A postemergence; settings: Lolium multiflorum, post-emergence, 240 h; for pest or weed control at 125 g/ha: 125 g ai/ha, postemergence, visual injury vs untreated controls after approx. 10 d, 0 = no effect, 100 = complete control, read-out: Ryegrass, Italian plant response rating (0 to 100 scale)
Method in brief: as §1

[16] = tested on: wheat (Triticum aestivum); assay: Test A postemergence; settings: Triticum aestivum, post-emergence, 240 h; for plant injury at 125 g/ha: 125 g ai/ha, postemergence, visual injury vs untreated controls after approx. 10 d, 0 = no effect, 100 = complete control, read-out: Wheat plant response rating (0 to 100 scale)
Method in brief: as §1

[17] = tested on: barnyardgrass (Echinochloa crus-galli); assay: Test B flooded paddy test; settings: Echinochloa crus-galli, 250 g ai/ha, Flood; 0 to 100 scale where 0 is no effect and 100 is complete control; read-out: Barnyardgrass plant response rating
Method in brief: (§2)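 Greenhouse paddy pots with 2-leaf stage plants received compound by direct addition to floodwater 3 cm deep, kept at that level. Scored visually at 13–15 d versus controls (0 no effect; 100 complete control).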

[18] = tested on: ducksalad (Heteranthera limosa); assay: Test B flooded paddy test; settings: Heteranthera limosa, 250 g ai/ha, Flood; 0 to 100 scale where 0 is no effect and 100 is complete control; read-out: Ducksalad plant response rating
Method in brief: as §2

[19] = tested on: rice (Oryra sativa); assay: Test B flooded paddy test; settings: Oryza sativa, 250 g ai/ha, Flood; 0 to 100 scale where 0 is no effect and 100 is complete control; read-out: Rice plant response rating
Method in brief: as §2

[20] = tested on: sedge, umbrella (small-flower umbrella sedge, Cyperus difformis); assay: Test B flooded paddy test; settings: Cyperus difformis, 250 g ai/ha, Flood; 0 to 100 scale where 0 is no effect and 100 is complete control; read-out: Sedge, Umbrella plant response rating
Method in brief: as §2

SMILES | pest or weed control at 31 g/ha [1] | pest or weed control at 125 g/ha [1] | pest or weed control at 31 g/ha [2] | pest or weed control at 125 g/ha [2] | pest or weed control at 31 g/ha [3] | pest or weed control at 125 g/ha [3] | pest or weed control at 31 g/ha [4] | pest or weed control at 125 g/ha [4] | pest or weed control at 31 g/ha [5] | pest or weed control at 125 g/ha [5] | pest or weed control at 31 g/ha [6] | pest or weed control at 125 g/ha [6] | pest or weed control at 125 g/ha [7] | pest or weed control at 31 g/ha [7] | pest or weed control at 125 g/ha [8] | pest or weed control at 31 g/ha [8] | pest or weed control at 125 g/ha [9] | pest or weed control at 31 g/ha [9] | pest or weed control at 125 g/ha [10] | pest or weed control at 31 g/ha [10] | also measured
CN1C[C@H](c2ccc3ncccc3c2)[C@@H](C(=O)Nc2cccc(F)c2F)C1=O [Compound 1167] | 0% | 0% | 0% | 0% | 0% | 50% | 0% | 0% | 0% | 0% | 0% | 0% | 20% | 0% | 0% | 0% | 50% | 0% | 0% | 0% | plant injury at 125 g/ha [11]: 0%; Corn plant response rating (crop injury, 0 = no effect, 100 = complete kill) at 31 g/ha [11]: 0%; pest or weed control at 125 g/ha [12]: 30%; pest or weed control at 31 g/ha [12]: 0%; pest or weed control at 125 g/ha [13]: 0%; pest or weed control at 31 g/ha ([13]; Postemergence, 31 g ai/ha, visual injury after approx. 10 d, 0 to 100 scale, 0 no effect, 100 complete control, read-out: Plant response rating, Pigweed): 0%; pest or weed control at 125 g/ha [14]: 0%; pest or weed control at 31 g/ha ([14]; Postemergence, 31 g ai/ha, visual injury after approx. 10 d, 0 to 100 scale, 0 no effect, 100 complete control, read-out: Plant response rating, Ragweed): 0%; pest or weed control at 125 g/ha [15]: 0%; pest or weed control at 31 g/ha ([15]; Postemergence, 31 g ai/ha, visual injury after approx. 10 d, 0 to 100 scale, 0 no effect, 100 complete control, read-out: Plant response rating, Ryegrass, Italian): 0%; plant injury at 125 g/ha [16]: 50%; plant injury at 31 g/ha ([16]; Postemergence, 31 g ai/ha, visual injury after approx. 10 d, 0 to 100 scale, 0 no effect, 100 complete control, read-out: Plant response rating, Wheat): 0%; pest or weed control at 250 g/ha [17]: 0%; pest or weed control at 250 g/ha [18]: 0%; pest or weed control at 250 g/ha [19]: 0%; pest or weed control at 250 g/ha [20]: 0%
CON1CC[C@H](c2cccc(C(F)(F)F)c2)[C@@H](C(=O)Nc2cccc(Cl)c2F)C1=O [Compound 1171] | 0% | 30% | 40% | 80% | 70% | 90% | 0% | 40% | 0% | 0% | 0% | 60% | 0% | 0% | 0% | 0% | 70% | 20% | 0% | 0% | plant injury at 125 g/ha [11]: 0%; Corn plant response rating (crop injury, 0 = no effect, 100 = complete kill) at 31 g/ha [11]: 0%; pest or weed control at 125 g/ha [12]: 60%; pest or weed control at 31 g/ha [12]: 30%; pest or weed control at 125 g/ha [13]: 0%; pest or weed control at 125 g/ha [14]: 0%; pest or weed control at 125 g/ha [15]: 0%; plant injury at 125 g/ha [16]: 0%; pest or weed control at 250 g/ha [17]: 30%; pest or weed control at 250 g/ha [18]: 0%; pest or weed control at 250 g/ha [19]: 0%; pest or weed control at 250 g/ha [20]: 0%
